Test results from PMC11035414, “A comparison study of dynamic [^18F]Alfatide II imaging and [^11C]MET in orthotopic rat models of glioblastoma” (Journal of Cancer Research and Clinical Oncology, 2024).

Key:
[1] = tested on: orthotopic GBM rat models (C6 glioma cells); test: Dynamic PET/MR imaging, semi-quantitative analysis (SUVmean, TNR, time-activity curves); conditions: in vivo
Experimental: C6 glioma cells from GuYan Biotech Co., Ltd. (Shanghai, China) were cultured in DMEM at 37 °C and 5% CO2. After two generations of cell culture, C6 cells were trypsinized and resuspended at the concentration of 1 × 10^7 cells/mL to prepare GBM model. […] After the hair on the top of the head was cut off, a small hole with a diameter of about 2 mm was drilled at the intersection of the left side of sagittal suture 3 mm and the front side of coronal suture 1 mm. […] After administering the injection, the syringe was carefully withdrawn. The burr hole was then sealed with bone wax, followed by suturing the skin closed. […] Simultaneous dynamic PET and MRI was performed with 150 mm field of view for whole-body mouse imaging. For [^18[…] imaging, the rat models received the intravenous bolus injection of 13.0 ± 2.1 MBq of the radiotracer. […] We conducted [^11C]MET and [^18[…] scans on 20 rats, with a time interval of no more than 48 h between the scans using the two tracers. […] On the PET image with both radiotracers, the MRI-based volume-of-interest (VOI) was manually delineated encompassing glioblastoma. […] The following parameters were extracted from TACs: time to peak (TTP) and slope of curve.

[2] = tested on: C6 glioblastoma-bearing rats; test: Ex vivo biodistribution study (γ counter); conditions: rat, in vivo
Experimental: Biodistribution study: […] The tumors and major tissue organs (blood, brain, heart, lungs, liver, spleen, blander, kidneys, bowel, muscle, femur and tumor) were collected. Tissues and organs were washed with normal saline and dried, and weighed using an electronic scale. The radioactivity counts of tissues and organs were measured with a γ counter, and the corresponding radioactivity value (%ID/g) was calculated after time attenuation correction.

[11CH3]SCC[C@H](N)C(=O)O [[^11C]MET, [^11C]methionine]
SUVmean in contralateral normal brain tissue [1]: 0.39 ± 0.12 | tumor-to-normal brain ratio (TNR) [1]: 2.91 ± 0.81 | normal organ(s) with the highest uptake, ex vivo [2]: liver
